Activity calls are given as the source filed them. The rule behind the calls is not given here.
What was measured:
[1] = Tmax in Sprague-Dawley rat at 10 mg/kg,po measured upto 24 hrs by LC-MS analysis; format: ADME, organism-based; details: in vivo
[2] = MRT in Sprague-Dawley rat at 10 mg/kg,po measured upto 24 hrs by LC-MS analysis; format: ADME, organism-based; details: in vivo
[3] = Stability in human liver microsomes assessed as parent compound remaining; format: ADME, Microsome
[4] = Stability in human liver microsomes assessed as parent compound remaining measured after 15 mins; format: ADME, Microsome; details: read-out: Stability
[5] = Stability in human liver microsomes assessed as parent compound remaining measured after 30 mins; format: ADME, Microsome; details: read-out: Stability
[6] = Stability in human liver microsomes assessed as parent compound remaining measured after 60 mins; format: ADME, Microsome; details: read-out: Stability
[7] = Stability in mouse liver microsomes assessed as parent compound remaining; format: ADME, Microsome
[8] = Stability in mouse liver microsomes assessed as parent compound remaining measured after 5 mins; format: ADME, Microsome; details: read-out: Stability
[9] = Stability in mouse liver microsomes assessed as parent compound remaining measured after 15 mins; format: ADME, Microsome; details: read-out: Stability
[10] = Stability in mouse liver microsomes assessed as parent compound remaining measured after 60 mins; format: ADME, Microsome; details: read-out: Stability
[11] = Metabolic stability in mouse liver microsomes assessed as half life; format: ADME, Microsome
[12] = Metabolic stability in mouse liver microsomes assessed as microsomal intrinsic clearance; format: ADME, Microsome; details: read-out: CLH
[13] = target: T1, Protein cereblon/Mitogen-activated protein kinase kinase kinase kinase 1 (Homo sapiens, UniProt Q92918+Q96SW2); test: PROTAC activity at CRBN/HPK1 in human Jurkat cells assessed as maximal degradation of HPK1 protein at 1 uM incubated for 24 hrs by Western blotting analysis relative to control; format: cell-based
[14] = target: T1, Protein cereblon/Mitogen-activated protein kinase kinase kinase kinase 1; test: PROTAC activity at CRBN/HPK1 in human Jurkat cells assessed as degradation of HPK1 protein at 1 uM preincubated with MLN4924 followed by compound addition incubated for 24 hrs by Western blotting analysis; format: cell-based
[15] = target: T1, Protein cereblon/Mitogen-activated protein kinase kinase kinase kinase 1; test: PROTAC activity at CRBN/HPK1 in human Jurkat cells assessed as degradation of HPK1 protein at 1 uM preincubated with 4-(2-(2,5-Dimethyl-1,2,3,4-tetrahydroisoquinolin-7-y1)-5H-pyrrolo[2,3-bipyrazin-7-y1)-N,N,2-trimethylbenzamide followed by compound addition incubated for 24 hrs by Western blotting analysis; format: cell-based
[16] = target: T1, Protein cereblon/Mitogen-activated protein kinase kinase kinase kinase 1; test: PROTAC activity at CRBN/HPK1 in human Jurkat cells assessed as degradation of HPK1 protein at 1 uM preincubated with cycloheximide followed by compound addition incubated for 4 hrs by Western blotting analysis; format: cell-based
[17] = tested on: Jurkat; test: Immunostimulatory activity in anti-CD3/CD28 induced human Jurkat cells assessed as increase in IFN-gamma release incubated for 24 hrs by ELISA; format: functional, cell-based
[18] = target: T2, Mitogen-activated protein kinase kinase kinase kinase 3 (Homo sapiens, UniProt Q8IVH8); test: Inhibition of GLK (unknown origin)
T2 sequence (Q8IVH8 whole entry): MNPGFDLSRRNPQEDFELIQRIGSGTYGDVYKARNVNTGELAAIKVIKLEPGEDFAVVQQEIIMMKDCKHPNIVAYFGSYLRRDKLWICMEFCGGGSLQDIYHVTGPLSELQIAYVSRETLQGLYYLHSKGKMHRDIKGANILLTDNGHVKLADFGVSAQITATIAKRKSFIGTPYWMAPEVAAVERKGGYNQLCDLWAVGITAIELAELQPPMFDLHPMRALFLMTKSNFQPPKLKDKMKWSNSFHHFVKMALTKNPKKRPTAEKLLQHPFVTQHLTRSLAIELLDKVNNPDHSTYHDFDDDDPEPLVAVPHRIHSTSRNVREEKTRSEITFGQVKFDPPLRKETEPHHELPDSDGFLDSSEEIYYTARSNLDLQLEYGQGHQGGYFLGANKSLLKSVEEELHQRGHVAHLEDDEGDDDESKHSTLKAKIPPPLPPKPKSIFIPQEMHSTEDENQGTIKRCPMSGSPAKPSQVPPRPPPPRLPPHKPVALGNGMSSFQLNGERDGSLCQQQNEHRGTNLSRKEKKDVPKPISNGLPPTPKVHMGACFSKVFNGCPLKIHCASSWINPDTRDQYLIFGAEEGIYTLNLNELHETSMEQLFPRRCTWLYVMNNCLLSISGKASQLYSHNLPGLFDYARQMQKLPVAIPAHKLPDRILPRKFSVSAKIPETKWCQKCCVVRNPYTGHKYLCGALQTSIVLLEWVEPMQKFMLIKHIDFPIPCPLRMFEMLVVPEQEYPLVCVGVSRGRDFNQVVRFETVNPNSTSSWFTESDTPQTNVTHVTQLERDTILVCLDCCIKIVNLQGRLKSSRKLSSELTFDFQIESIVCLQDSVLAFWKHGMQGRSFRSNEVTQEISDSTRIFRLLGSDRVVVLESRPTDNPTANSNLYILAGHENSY

[19] = tested on: Jurkat; test: Immunostimulatory activity in anti-CD3/CD28 induced human Jurkat cells assessed as downregulation of SLP76 expression by Western blotting analysis; format: functional, cell-based
[20] = tested on: Jurkat; test: Immunostimulatory activity in anti-CD3/CD28 induced human Jurkat cells assessed as downregulation of NF-kappaB expression by Western blotting analysis; format: functional, cell-based
[21] = tested on: Jurkat; test: Immunostimulatory activity in anti-CD3/CD28 induced human Jurkat cells assessed as upregulation of JNK expression by Western blotting analysis; format: functional, cell-based
[22] = tested on: Jurkat; test: Immunostimulatory activity in anti-CD3/CD28 induced human Jurkat cells assessed as upregulation of JNK phosphorylation by Western blotting analysis; format: functional, cell-based
[23] = Half life in ICR mouse at 1 mg/kg,iv measured upto 24 hrs by LC-MS analysis; format: ADME, organism-based; details: in vivo
[24] = Tmax in ICR mouse at 1 mg/kg,iv measured upto 24 hrs by LC-MS analysis; format: ADME, organism-based; details: in vivo
[25] = Cmax in ICR mouse at 10 mg/kg,po measured upto 24 hrs by LC-MS analysis; format: ADME, organism-based; details: in vivo
[26] = Bioavailability in ICR mouse at 10 mg/kg,po or 1 mg/kg,iv measured upto 24 hrs by LC-MS analysis; format: ADME, organism-based; details: in vivo
[27] = tested on: CT26; test: Antitumor activity against mouse CT26 cells implanted BALB/c mouse model assessed as tumor growth inhibition at 25 mg/kg,po administrated once daily for 15 days relative to control; format: functional; details: CT26, 360 h, time 15 day, read-out: TGI
[28] = tested on: CT26; test: Antitumor activity against mouse CT26 cells implanted BALB/c mouse model assessed as tumor growth inhibition at 25 mg/kg,po administrated once daily for 15 days in presence of anti-PD-L1 antibody relative to control; format: functional; details: CT26, 360 h, time 15 day, read-out: TGI
[29] = target: T1, Protein cereblon/Mitogen-activated protein kinase kinase kinase kinase 1; test: PROTAC activity at CRBN/HPK1 in human Jurkat cells assessed as downregulation of PFDN5 expression by Western blotting analysis; format: cell-based
[30] = target: T1, Protein cereblon/Mitogen-activated protein kinase kinase kinase kinase 1; test: PROTAC activity at CRBN/HPK1 in human Jurkat cells assessed as downregulation of GLK expression by Western blotting analysis; format: cell-based
[31] = target: T1, Protein cereblon/Mitogen-activated protein kinase kinase kinase kinase 1; test: PROTAC activity at CRBN/HPK1 in human Jurkat cells assessed as upregulation of PCGF6 expression by Western blotting analysis; format: cell-based
[32] = target: T1, Protein cereblon/Mitogen-activated protein kinase kinase kinase kinase 1; test: PROTAC activity at CRBN/HPK1 in human Jurkat cells assessed as upregulation of GCK expression by Western blotting analysis; format: cell-based
[33] = target: T1, Protein cereblon/Mitogen-activated protein kinase kinase kinase kinase 1; test: PROTAC activity at CRBN/HPK1 in human Jurkat cells assessed as upregulation of HGK expression by Western blotting analysis; format: cell-based

T1 sequence (Q92918 whole entry, looked up): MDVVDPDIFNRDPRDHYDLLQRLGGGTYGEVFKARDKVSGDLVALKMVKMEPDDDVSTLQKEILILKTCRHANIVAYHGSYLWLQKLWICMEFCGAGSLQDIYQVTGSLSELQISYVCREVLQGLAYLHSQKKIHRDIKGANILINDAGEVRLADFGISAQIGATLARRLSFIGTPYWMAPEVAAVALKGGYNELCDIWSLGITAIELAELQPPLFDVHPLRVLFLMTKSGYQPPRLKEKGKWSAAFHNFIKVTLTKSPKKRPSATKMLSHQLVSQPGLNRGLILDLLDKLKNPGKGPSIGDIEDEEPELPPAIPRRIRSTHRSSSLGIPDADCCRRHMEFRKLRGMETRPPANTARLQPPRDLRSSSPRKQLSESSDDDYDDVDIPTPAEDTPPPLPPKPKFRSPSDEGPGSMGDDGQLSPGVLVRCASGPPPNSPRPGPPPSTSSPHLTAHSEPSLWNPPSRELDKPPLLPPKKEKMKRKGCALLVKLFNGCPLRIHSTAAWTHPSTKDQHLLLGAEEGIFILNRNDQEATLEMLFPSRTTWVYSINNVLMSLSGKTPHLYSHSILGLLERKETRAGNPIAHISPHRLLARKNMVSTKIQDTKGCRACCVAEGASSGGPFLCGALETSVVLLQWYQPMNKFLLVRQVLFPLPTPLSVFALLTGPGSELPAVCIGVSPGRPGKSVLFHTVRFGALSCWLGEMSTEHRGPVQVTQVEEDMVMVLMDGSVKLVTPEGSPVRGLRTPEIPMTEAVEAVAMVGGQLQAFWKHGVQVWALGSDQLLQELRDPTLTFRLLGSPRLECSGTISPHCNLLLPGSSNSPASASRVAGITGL
T1 sequence (Q96SW2 whole entry, looked up): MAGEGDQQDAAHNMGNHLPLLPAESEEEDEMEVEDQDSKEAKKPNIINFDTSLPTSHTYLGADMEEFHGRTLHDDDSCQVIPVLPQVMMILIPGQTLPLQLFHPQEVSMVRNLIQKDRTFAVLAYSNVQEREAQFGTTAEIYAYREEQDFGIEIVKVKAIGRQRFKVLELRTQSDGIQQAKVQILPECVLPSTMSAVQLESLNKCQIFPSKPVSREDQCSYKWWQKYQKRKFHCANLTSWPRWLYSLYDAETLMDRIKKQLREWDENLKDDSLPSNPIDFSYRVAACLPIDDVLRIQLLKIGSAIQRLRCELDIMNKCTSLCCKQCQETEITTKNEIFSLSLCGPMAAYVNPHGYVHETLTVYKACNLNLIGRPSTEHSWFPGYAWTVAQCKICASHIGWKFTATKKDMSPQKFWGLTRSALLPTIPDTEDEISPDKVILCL

**Q.** For `Cc1cc(-c2c[nH]c3ncc(-c4ccc(C5CCN(C6CN(c7ccc8c(c7)C(=O)N(C7CCC(=O)NC7=O)C8=O)C6)CC5)cc4)nc23)ccc1C(=O)N(C)C` (stereo not drawn), which Tmax [1] is on record?
**A.** 1 h

**Q.** And the MRT [2]?
**A.** 9.62 h

**Q.** What about the Stability [3] of the same compound?
**A.** 100%

**Q.** What about the remaining at 0.25 h [4] of the same compound?
**A.** 101%

**Q.** And the remaining at 0.5 h [5]?
**A.** 98.3%

**Q.** What about the remaining at 1 h [6] of the same compound?
**A.** 94.5%

**Q.** What about the Stability [7] of the same compound?
**A.** 100%

**Q.** And the remaining at 5 min [8]?
**A.** 100%

**Q.** What about the remaining at 0.25 h [9] of the same compound?
**A.** 85.5%

**Q.** What about the remaining at 1 h [10] of the same compound?
**A.** 59.4%

**Q.** What about the half-life [11] of the same compound?
**A.** 1.25 h

**Q.** What about the CLint scaled [12] of the same compound?
**A.** 0.996 L/h/kg

**Q.** And the Activity [13]?
**A.** 100%

**Q.** And the Activity [14]?
**A.** inactive

**Q.** And the Activity [15]?
**A.** Active

**Q.** And the Activity [16]?
**A.** Active

**Q.** And the Activity [17]?
**A.** Dose-Dependent Effect

**Q.** What about the IC50 [18] of the same compound?
**A.** > 0.5 µM

**Q.** What about the Activity [19] of the same compound?
**A.** Active

**Q.** And the Activity [20]?
**A.** Active

**Q.** And the Activity [21]?
**A.** Active

**Q.** What about the Activity [22] of the same compound?
**A.** Active

**Q.** What about the half-life [23] of the same compound?
**A.** 3.13 h

**Q.** And the Tmax [24]?
**A.** 4.8 min

**Q.** What about the Cmax [25] of the same compound?
**A.** 10.9 µg/mL

**Q.** What about the bioavailability [26] of the same compound?
**A.** 81.7%

**Q.** And the inhibition in vivo at 25 mg/kg [27]?
**A.** 47.2%

**Q.** What about the inhibition in vivo at 25 mg/kg [28] of the same compound?
**A.** 65.6%

**Q.** What about the Activity [29] of the same compound?
**A.** Active

**Q.** And the Activity [30]?
**A.** Active

**Q.** And the Activity [31]?
**A.** Active

**Q.** And the Activity [32]?
**A.** inactive

**Q.** What about the Activity [33] of the same compound?
**A.** inactive

Reference: ChEMBL document CHEMBL5576124, “Discovery of an Exceptionally Orally Bioavailable and Potent HPK1 PROTAC with Enhancement of Antitumor Efficacy of Anti-PD-L1 Therapy” (J Med Chem, 2024)
